≈ marks a conversion by molar mass, not a printed value. Blank lines part the entries; values can stand above or below the compound they belong to.
Legend:
[1] = Kinetic solubility of compound at pH 6.8 by turbidimetry method; format: physicochemical; details: buffer, read-out: Kinetic_solubility
[2] = Microsomal stability in rat liver microsomes assessed as intrinsic clearance at 0.1 uM incubated for 10 mins in presence of NADPH by LC-MS/MS analysis; format: ADME, Microsome
[3] = Microsomal stability in human liver microsomes assessed as intrinsic clearance at 0.1 uM incubated for 10 mins in presence of NADPH by LC-MS/MS analysis; format: ADME, Microsome
[4] = Microsomal stability in mouse liver microsomes assessed as intrinsic clearance at 0.1 uM incubated for 10 mins in presence of NADPH by LC-MS/MS analysis; format: ADME, Microsome
[5] = system: HOS-TE85; assay: Antiproliferative activity against human MNNG/HOS cells assessed as cell growth inhibition measured after 72 hrs by CCK-8 assay; format: functional, cell-based; details: HOS-TE85, 72 h
[6] = Kinetic solubility of compound at pH 7.4 by turbidimetry method; format: physicochemical; details: buffer, read-out: Kinetic_solubility
[7] = system: HOS-TE85; assay: Antiproliferative activity against human MNNG/HOS cells assessed as cell growth inhibition at 1 uM measured after 72 hrs by CCK-8 assay relative to control; format: functional
[8] = system: SJSA-1; assay: Antiproliferative activity against human SJSA-1 assessed as cell growth inhibition at 1 uM measured after 72 hrs by CCK-8 assay relative to control; format: functional
[9] = system: U2OS; assay: Antiproliferative activity against human U2OS cells assessed as cell growth inhibition at 1 uM measured after 72 hrs by CCK-8 assay relative to control; format: functional
[10] = system: 143B; assay: Antiproliferative activity against human 143B cells assessed as cell growth inhibition at 1 uM measured after 72 hrs by CCK-8 assay relative to control; format: functional
[11] = system: HOS; assay: Antiproliferative activity against human HOS cells assessed as cell growth inhibition at 1 uM measured after 72 hrs by CCK-8 assay relative to control; format: functional
[12] = system: MG-63; assay: Antiproliferative activity against human MG-63 cells assessed as cell growth inhibition at 1 uM measured after 72 hrs by CCK-8 assay relative to control; format: functional

- solubility kinetic [1]: 10 µM (≈ 4.85 µg/mL)
- intrinsic clearance (CLint) [2]: 3129 mL/min/g
- intrinsic clearance (CLint) [3]: 2013 mL/min/g
- intrinsic clearance (CLint) [4]: 3212 mL/min/g
- solubility kinetic [6]: 2 µM (≈ 0.969 µg/mL)
SMILES: CC1SC(c2cccc(C(=O)NCCCCc3ccccc3)c2)N(c2ccc(C3CC3)cc2)C1=O (stereo not given)
- IC50 [5]: 191 nM

SMILES: O=C(NCCCc1ccccc1)c1cccc(C2SCC(=O)N2c2ccc(C3CC3)cc2)c1 (stereo not given)
- IC50 [5]: > 1000 nM

SMILES: CCN1C(=O)CSC1c1cccc(C(=O)NCCCCc2ccccc2)c1 (stereo not given)
- inhibition at 1 µM [7]: 0%
- inhibition at 1 µM [8]: 3%
- inhibition at 1 µM [9]: 13%
- inhibition at 1 µM [10]: 40%
- inhibition at 1 µM [11]: 6%
- inhibition at 1 µM [12]: 0%
- IC50 [5]: > 1000 nM

SMILES: O=C(NCCCCc1ccccc1)c1cc(F)cc(C2SCC(=O)N2c2ccccn2)c1 (stereo not given)
- IC50 [5]: 14.2 nM

SMILES: O=C(NCCc1ccccc1)c1cccc(C2SCC(=O)N2c2ccc(C3CC3)cc2)c1 (stereo not given)
- IC50 [5]: > 1000 nM

SMILES: COc1ccccc1N1C(=O)CSC1c1cccc(C(=O)NCCCCN2CCN(C(=O)OC(C)(C)C)CC2)c1 (stereo not given)
- IC50 [5]: > 1000 nM

SMILES: CCOC(=O)c1sc(N2C(=O)CSC2c2cccc(C(=O)NCCCCn3cccn3)c2)nc1C (stereo not given)
- IC50 [5]: 430 nM

SMILES: O=C(NCCCCc1ccccc1)c1cccc(C2OCC(=O)N2c2cccc(F)c2)c1 (stereo not given)
- inhibition at 1 µM [7]: 87%
- inhibition at 1 µM [8]: 32%
- inhibition at 1 µM [9]: 25%
- inhibition at 1 µM [10]: 0%
- inhibition at 1 µM [11]: 29%
- inhibition at 1 µM [12]: 66%
- IC50 [5]: 320 nM

SMILES: COc1ccccc1N1C(=O)CSC1c1cccc(C(=O)NCCCCc2ccc(Cl)cc2)c1 (stereo not given)
- IC50 [5]: 78.6 nM

SMILES: COc1ccccc1N1C(=O)CSC1c1cccc(C(=O)NCCCCn2cccn2)c1 (stereo not given)
- IC50 [5]: 91.7 nM

- solubility kinetic [1]: 10 µM (≈ 4.79 µg/mL)
- intrinsic clearance (CLint) [2]: 3259 mL/min/g
- intrinsic clearance (CLint) [3]: 2076 mL/min/g
- intrinsic clearance (CLint) [4]: 1434 mL/min/g
- solubility kinetic [6]: 10 µM (≈ 4.79 µg/mL)
SMILES: COc1ccccc1N1C(=O)CSC1c1cc(F)cc(C(=O)NCCCCc2ccccc2)c1 (stereo not given)
- IC50 [5]: 40.9 nM

SMILES: COc1cc(F)ccc1N1C(=O)CSC1c1cccc(C(=O)NCCCCc2ccccc2)c1 (stereo not given)
- inhibition at 1 µM [7]: 94%
- inhibition at 1 µM [8]: 77%
- inhibition at 1 µM [9]: 34%
- inhibition at 1 µM [10]: 63%
- inhibition at 1 µM [11]: 81%
- inhibition at 1 µM [12]: 92%
- IC50 [5]: 71.1 nM

SMILES: CC1SC(c2cccc(C(=O)NCCCCc3ccc(Cl)cc3)c2)N(c2cccc(C3CC3)c2)C1=O (stereo not given)
- IC50 [5]: 932 nM

SMILES: O=C(NCCCCn1cccn1)c1cccc(C2SCC(=O)N2c2cccc(C3CC3)c2)c1 (stereo not given)
- IC50 [5]: 298 nM

SMILES: COc1ccccc1N1C(=O)CSC1C(=O)NCCCCc1ccccc1 (stereo not given)
- inhibition at 1 µM [7]: 0%
- inhibition at 1 µM [8]: 14%
- inhibition at 1 µM [9]: 6%
- inhibition at 1 µM [10]: 4%
- inhibition at 1 µM [11]: 0%
- inhibition at 1 µM [12]: 60%
- IC50 [5]: > 1000 nM

SMILES: O=C(NCCCCc1ccccc1)c1cccc(C2SCC(=O)N2c2nccs2)c1 (stereo not given)
- IC50 [5]: > 1000 nM

SMILES: COc1ccccc1N1C(=O)CSC1c1cccc(C(=O)NCCCCn2cncn2)c1 (stereo not given)
- IC50 [5]: > 1000 nM

SMILES: CC1SC(c2cccc(C(=O)NCCCCc3ccccc3)c2)N(c2cccc(C3CC3)c2)C1=O (stereo not given)
- IC50 [5]: 295 nM

SMILES: O=C(NCCCCc1ccccc1)c1cccc(C2SCC(=O)N2c2ccc(-c3ccccc3)cc2)c1 (stereo not given)
- IC50 [5]: > 1000 nM

SMILES: O=C(NCCCCn1cccn1)c1cccc(C2SCC(=O)N2c2ccncc2)c1 (stereo not given)
- IC50 [5]: > 1000 nM

SMILES: COc1ccc(OC)c(N2C(=O)CSC2c2cccc(C(=O)NCCCCc3ccccc3)c2)c1 (stereo not given)
- inhibition at 1 µM [7]: 20%
- inhibition at 1 µM [8]: 48%
- inhibition at 1 µM [9]: 1%
- inhibition at 1 µM [10]: 2%
- inhibition at 1 µM [11]: 5%
- inhibition at 1 µM [12]: 92%
- IC50 [5]: > 1000 nM

SMILES: COc1ccccc1N1C(=O)CSC1c1cc(C)cc(C(=O)NCCCCc2ccccc2)c1 (stereo not given)
- IC50 [5]: 16.2 nM

SMILES: O=C(NCCCCn1cccn1)c1cccc(C2SCC(=O)N2c2cccnc2)c1 (stereo not given)
- IC50 [5]: > 1000 nM

- solubility kinetic [1]: 20 µM (≈ 8.63 µg/mL)
- intrinsic clearance (CLint) [2]: 1482 mL/min/g
- intrinsic clearance (CLint) [3]: 412 mL/min/g
- intrinsic clearance (CLint) [4]: 644 mL/min/g
- solubility kinetic [6]: 20 µM (≈ 8.63 µg/mL)
SMILES: O=C(NCCCCc1ccccc1)c1cccc(C2SCC(=O)N2c2ccccn2)c1 (stereo not given)
- IC50 [5]: 19.7 nM

- solubility kinetic [1]: 20 µM (≈ 9.95 µg/mL)
- intrinsic clearance (CLint) [2]: 742 mL/min/g
- intrinsic clearance (CLint) [3]: 261 mL/min/g
- intrinsic clearance (CLint) [4]: 951 mL/min/g
- solubility kinetic [6]: 20 µM (≈ 9.95 µg/mL)
SMILES: O=C(NCCCCc1ccccc1)c1cccc(C2SCC(=O)N2c2cccc(-c3c[nH]nn3)c2)c1 (stereo not given)
- IC50 [5]: 110 nM
